# Target: T1, recombinant human FAAH (rhFAAH) (Homo sapiens, UniProt O00519)
# T1 construct: purchased Cayman Chemical (Ann Arbor, MI, USA)
# T1 sequence (O00519 1-579): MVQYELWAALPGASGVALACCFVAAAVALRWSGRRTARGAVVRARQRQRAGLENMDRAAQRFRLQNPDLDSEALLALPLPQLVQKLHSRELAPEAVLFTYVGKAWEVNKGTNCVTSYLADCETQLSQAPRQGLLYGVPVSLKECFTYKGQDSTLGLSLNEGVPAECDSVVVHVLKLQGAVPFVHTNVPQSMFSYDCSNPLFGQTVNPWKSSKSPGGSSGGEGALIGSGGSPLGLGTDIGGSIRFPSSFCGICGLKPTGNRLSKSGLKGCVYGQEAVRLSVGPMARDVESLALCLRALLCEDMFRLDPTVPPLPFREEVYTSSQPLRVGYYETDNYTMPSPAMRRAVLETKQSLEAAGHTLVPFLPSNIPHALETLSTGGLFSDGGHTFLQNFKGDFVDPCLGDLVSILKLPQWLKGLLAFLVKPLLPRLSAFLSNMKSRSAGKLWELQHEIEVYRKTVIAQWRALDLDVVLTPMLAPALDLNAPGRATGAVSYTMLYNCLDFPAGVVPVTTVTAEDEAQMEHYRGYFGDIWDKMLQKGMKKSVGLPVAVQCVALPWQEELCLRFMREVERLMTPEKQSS
# Assay: FAAH substrate evaluation (formation of acid metabolite, LC-MS/MS)
# Assay type: biochemical
# Set-up: key: A: ke is equal to or less than 1.0; B: ke is greater than 1.0 and less than or equal to 2.5; C: ke is greater than 2.5; NC: no conversion
# Conditions: 0.5 ng/μL rhFAAH, 1 μM test compound, pH 8.0, room temperature, 0-60 minutes
# Procedure: Purified recombinant human FAAH (rhFAAH) was purchased from Cayman Chemical (Ann Arbor, MI, USA). The total volume for each incubation was 400 μL containing a final 0.5 ng/μL rhFAAH, 1 μM test compound, 1.25% ethanol or 1 μM PF-3845 (FAAH inhibitor), and 0.1% bovine serum albumin in Tris-EDTA buffer at pH 8.0). The positive control was LL-341001. The incubation was conducted at the room temperature. At 0, 5, 15, 30 and 60 minutes, an aliquot of 30 μL reaction mixtures was removed and mixed with 300 μL acetonitrile containing 5 ng/mL terfenadine and 10 ng/mL tolbutamide as internal standards to quench the reaction. The resulting mixture was centrifuged at 4000 rpm, 4° C. for 15 minutes, and 100 μL supernatant was ready for LC-MS/MS analysis to measure the formation of acid metabolite.
# Acquity Ultra Performance LC system from Waters was used for sample analysis. The chromatography was performed on a reverse phase Kinetex 2.6 μm C18 column, 2.1×30 mm, 100 Å. The mobile phase A comprised of 0.1% formic acid in water and mobile phase B comprised of 0.1% formic acid in acetonitrile with a 2-min run time at the flow rate of 0.8 mL/min for the acid metabolite from positive control or a 1.5 min run time at the flow rate of 0.9 mL/min for the acid metabolite of test compounds. The mass spectrometer (API-5500 and API Q Trap 4000 Applied Biosystems/MDS SCIEX Instruments, Framingham, MA, USA) was operated under ESI positive or negative ion MRM mode.
# The formation of acid metabolite was monitored and quantified using one calibration point of 1 μM. The observed rate constant (ke) for the acid metabolite formation was calculated by plotting the metabolite concentration versus time of incubation with the slope being ke and is shown in Table 4.
row,SMILES,"ke, observed rate constant for the acid metabolite formation"
1,"CNC(=O)/C=C/c1cc(Cl)c(Cc2ccc(O)c(C(C)C)c2F)c(Cl)c1 [Compound 115, (E)-3-(3,5-dichloro-4-(2-fluoro-4-hydroxy-3-isopropylbenzyl)phenyl)-N-methylacrylamide]",NC
2,"CNC(=O)CSc1cc(Cl)c(Cc2ccc(O)c(C(C)C)c2)c(Cl)c1F [Compound 190, 2-((3,5-dichloro-2-fluoro-4-(4-hydroxy-3-isopropylbenzyl)phenyl)thio)-N-methylacetamide]",B (ke is greater than 1.0 and less than or equal to 2.5)
3,"CNC(=O)CSc1cc(C)c(Cc2ccc(O)c(C(C)C)c2)c(Cl)c1 [Compound 242, 2-((3-chloro-4-(4-hydroxy-3-isopropylbenzyl)-5-methylphenyl)thio)-N-methylacetamide]",B (ke is greater than 1.0 and less than or equal to 2.5)
4,"CC(C)c1c(O)ccc(Cc2c(Cl)cc(NCC(=O)Nc3ccnnc3)c(F)c2Cl)c1F [Compound 162, 2-((3,5-dichloro-2-fluoro-4-(2-fluoro-4-hydroxy-3-isopropylbenzyl)phenyl)amino)-N-(pyridazin-4-yl)acetamide]",C (ke is greater than 2.5)
5,"CNC(=O)/C(C)=C/c1cc(Cl)c(Cc2ccc(O)c(C(C)C)c2F)c(Cl)c1 [Compound 146, (E)-3-(3,5-dichloro-4-(2-fluoro-4-hydroxy-3-isopropylbenzyl)phenyl)-N,2-dimethylacrylamide]",A (ke is equal to or less than 1.0)
6,"Cc1cc(CSCC(=O)Nc2cccnn2)cc(Cl)c1Cc1ccc(O)c(C(C)C)c1 [Compound 230, 2-((3-chloro-4-(4-hydroxy-3-isopropylbenzyl)-5-methylbenzyl)thio)-N-(pyridazin-3-yl)acetamide]",B (ke is greater than 1.0 and less than or equal to 2.5)
7,"CC(C)c1c(O)ccc(Cc2c(Cl)cc(NCC(=O)N(C)C)c(F)c2Cl)c1F [Compound 166, 2-((3,5-dichloro-2-fluoro-4-(2-fluoro-4-hydroxy-3-isopropylbenzyl)phenyl)amino)-N,N-dimethylacetamide]",NC
8,"Cc1noc(NC(=O)CSc2cc(Cl)c(Cc3ccc(O)c(C(C)C)c3)c(Cl)c2)c1C [Compound 168, 2-((3,5-dichloro-4-(4-hydroxy-3-isopropylbenzyl)phenyl)thio)-N-(3,4-dimethylisoxazol-5-yl)acetamide]",B (ke is greater than 1.0 and less than or equal to 2.5)
9,"CNC(=O)CSc1cc(C)c(Cc2ccc(O)c(C(C)C)c2)c(Cl)c1F [Compound 218, 2-((3-chloro-2-fluoro-4-(4-hydroxy-3-isopropylbenzyl)-5-methylphenyl)thio)-N-methylacetamide]",B (ke is greater than 1.0 and less than or equal to 2.5)
10,"CCNC(=O)CNc1cc(Cl)c(Cc2ccc(O)c(C(C)C)c2F)c(Cl)c1F [Compound 165, 2-((3,5-dichloro-2-fluoro-4-(2-fluoro-4-hydroxy-3-isopropylbenzyl)phenyl)amino)-N-ethylacetamide]",A (ke is equal to or less than 1.0)
11,"CNC(=O)CCc1cc(Cl)c(Cc2ccc(O)c(C(C)C)c2F)c(Cl)c1 [Compound 41, 3-(3,5-dichloro-4-(2-fluoro-4-hydroxy-3-isopropylbenzyl)phenyl)-N-methylpropanamide]",A (ke is equal to or less than 1.0)
12,"CC(C)CNC(=O)CNc1cc(Cl)c(Cc2ccc(O)c(C(C)C)c2F)c(Cl)c1F [Compound 164, 2-((3,5-dichloro-2-fluoro-4-(2-fluoro-4-hydroxy-3-isopropylbenzyl)phenyl)amino)-N-isobutylacetamide]",NC

# Results, then the compound that gave them:
row,"ke, observed rate constant for the acid metabolite formation",SMILES
1,A (ke is equal to or less than 1.0),"CNC(=O)CNc1cc(Cl)c(Cc2ccc(O)c(C(C)C)c2)c(Cl)c1 [Compound 175, 2-((3,5-dichloro-4-(4-hydroxy-3-isopropylbenzyl)phenyl)amino)-N-methylacetamide]"
2,C (ke is greater than 2.5),"CC(C)c1cc(Cc2c(Cl)cc(SCC(=O)Nc3ccncc3)cc2Cl)ccc1O [Compound 172, 2-((3,5-dichloro-4-(4-hydroxy-3-isopropylbenzyl)phenyl)thio)-N-(pyridin-4-yl)acetamide]"
3,C (ke is greater than 2.5),"Cc1cc(CSCC(=O)NC2CC2)cc(Cl)c1Cc1ccc(O)c(C(C)C)c1 [Compound 229, 2-((3-chloro-4-(4-hydroxy-3-isopropylbenzyl)-5-methylbenzyl)thio)-N-cyclopropylacetamide]"
4,C (ke is greater than 2.5),"CC(C)c1cc(Cc2c(Cl)cc(SCC(=O)Nc3cccnn3)cc2Cl)ccc1O [Compound 174, 2-((3,5-dichloro-4-(4-hydroxy-3-isopropylbenzyl)phenyl)thio)-N-(pyridazin-3-yl)acetamide]"
5,A (ke is equal to or less than 1.0),"CNC(=O)CCc1cc(Cl)c(Cc2ccc(O)c(C(C)C)c2)c(Cl)c1 [Compound 12, 3-(3,5-dichloro-4-(4-hydroxy-3-isopropylbenzyl)phenyl)-N-methylpropanamide]"
6,A (ke is equal to or less than 1.0),"Cc1cc(CSCC(=O)N(C)C)cc(Cl)c1Cc1ccc(O)c(C(C)C)c1 [Compound 231, 2-((3-chloro-4-(4-hydroxy-3-isopropylbenzyl)-5-methylbenzyl)thio)-N,N-dimethylacetamide]"
7,C (ke is greater than 2.5),"CNC(=O)CSCc1cc(Cl)c(Cc2ccc(O)c(C(C)C)c2F)c(Cl)c1 [Compound 147, 2-((3,5-dichloro-4-(2-fluoro-4-hydroxy-3-isopropylbenzyl)benzyl)thio)-N-methylacetamide]"
8,A (ke is equal to or less than 1.0),"CNC(=O)CNc1cc(Cl)c(Cc2ccc(O)c(C(C)C)c2)c(Cl)c1F [Compound 76, 2-((3,5-dichloro-2-fluoro-4-(4-hydroxy-3-isopropylbenzyl)phenyl)amino)-N-methylacetamide]"
9,A (ke is equal to or less than 1.0),"Cc1cc(CSCC(=O)N2CCC2)cc(Cl)c1Cc1ccc(O)c(C(C)C)c1 [Compound 228, 1-(azetidin-1-yl)-2-((3-chloro-4-(4-hydroxy-3-isopropylbenzyl)-5-methylbenzyl)thio)ethan-1-one]"
10,NC,"CC(C)c1cc(Cc2c(Cl)cc(SCC(=O)N(C)C)cc2Cl)ccc1O [Compound 194, 2-((3,5-dichloro-4-(4-hydroxy-3-isopropylbenzyl)phenyl)thio)-N,N-dimethylacetamide]"
11,A (ke is equal to or less than 1.0),"CC(C)c1cc(Cc2c(Cl)cc(SCC(=O)N3CCC3)cc2Cl)ccc1O [Compound 183, 1-(azetidin-1-yl)-2-((3,5-dichloro-4-(4-hydroxy-3-isopropylbenzyl)phenyl)thio)ethan-1-one]"
12,C (ke is greater than 2.5),"Cc1cc(CSCC(N)=O)cc(Cl)c1Cc1ccc(O)c(C(C)C)c1 [Compound 232, 2-((3-chloro-4-(4-hydroxy-3-isopropylbenzyl)-5-methylbenzyl)thio)acetamide]"
13,NC,"CC(C)CNC(=O)CSc1cc(Cl)c(Cc2ccc(O)c(C(C)C)c2)c(Cl)c1 [Compound 185, 2-((3,5-dichloro-4-(4-hydroxy-3-isopropylbenzyl)phenyl)thio)-N-isobutylacetamide]"
14,A (ke is equal to or less than 1.0),"CC(C)c1cc(Cc2c(Cl)cc(SCC(=O)NCC3CC3)cc2Cl)ccc1O [Compound 181, N-(cyclopropylmethyl)-2-((3,5-dichloro-4-(4-hydroxy-3-isopropylbenzyl)phenyl)thio)acetamide]"

# — patent publication US12528761B2, “Thyromimetics” (Autobahn Therapeutics, Inc., priority 2020, dated 2026)
